According to patent US11173119B2 (YALE UNIVERSITY, priority 2012, dated 2021):

What was measured:
Splenocytes = test: IL-2 bioactivity study (splenocyte stimulation, IFN-γ ELISA); format: cell-based, B6 mouse; settings: IFN-γ production correlated with IL-2 concentration
Experimental: Splenocytes were isolated from a B6 mouse and 1×10^6 cells were added in 500 μL T cell media to each well of a 24 well plate previously coated with 10 μg/mL anti-CD3 (coated overnight in 1×PBS at 4° C.) and 5 μg/mL soluble anti-CD28 (BD Biosciences). The media from release studies was filtered through a 0.22-μm syringe filter (Whatman) and 500 μL was added to the wells. Additionally all wells contained 5 μg/mL, soluble anti-CD28 (BD Biosciences). […] Cells were incubated at 37° C. and cellular stimulation was assessed after 72 hours using an IFN-γ ELISA (BD Biosciences).

[1] = cited from earlier work
B16 melanomas = test: In vivo subcutaneous tumor studies, intratumoral nanolipogel therapy; design: species or system B6 albino mice
Experimental: B16-F10 cells (ATCC) were cultured in DMEM (Gibco) and suspended at 2×10^6 cells/mL in 1×PBS (kept on ice) directly prior to injection. For subcutaneous tumor studies, female 6-8 week-old B6 albino mice were sedated with AErrane (isofluorane; Baxter) and the right hind flank was shaved prior to a subcutaneous injection of 50 μL of the cellular suspension. Tumors were monitored and treatment began when the average tumor area reached approximately 5.5 mm^2 (8-10 days after B16 injection; mice were rearranged to normalize tumor sizes across groups).
Observers were blinded for tumor area and survival studies. […] Five mice per group were euthanized at different timepoints and tumors were extracted and weighed.

B16 lung metastases = test: Metastatic B16 lung tumor study, intravenous nanolipogel therapy; format: in vivo, B6 mice; settings: two weeks after initial treatment
Experimental: Metastatic B16 melanomas were established in female 6-8 week old B6 mice by intravenous (tail vein) administration of 50 μL of B16 cellular suspension as described by Gorelik, et al. Nat Med 7, 1118-1122 (2001). […] After sacrifice, the chest cavity was exposed and the lungs perfused by making a small incision in the right atrium and injecting 10 mL of cold PBS into the right ventricle. Lung metastates were counted by blinded observers who recorded dark circular masses ranging from 0.1-3 mm as unique tumors.

SMILES: Cc1cccc(-c2[nH]c(C(C)(C)C)nc2-c2ccc3c(c2)OCO3)n1.Cl [SB, 2-(5-benzo[1,3]dioxol-5-yl-2-tert-butyl-3H-imidazol-4-yl)-6-methylpyridine hydrochloride]
- bioactivity after lipogel incorporation (Splenocytes): unaffected
- Log P [1]: 4.33
- survival (B16 melanomas; intratumoral): did not improve survival
- tumor growth (tumor area versus time) (B16 melanomas; weekly intratumoral administration): failed to delay tumor growth
- number of lung tumors (B16 lung metastases): failed to reduce the number of lung tumors
